Results from patent publication US20240425867A1, “NUCLEIC ACID-BASED ASSEMBLY AND USES THEREOF” (Rheinische Friedrich-Wilhelms-Universität Bonn, priority 2016, published 2024).
Values joined by “and” are separate entries in the source; they are usually repeats but may differ in a detail not shown here. Equal values may be shown once.

Experiments:
Assay type in all cases: physicochemical
[1] = Critical micelle concentration from pyrene fluorescence; settings: pyrene 100 μM
Procedure: Critical micelle concentration (CMC) value of the trCLN3-L4 motif was further confirmed by internalizing pyrene into the hydrophobic-lipid core of the micellar aggregate followed by measuring the fluorescence of pyrene-loaded trCLN3-L4 nanoconstructs at different concentrations. For this experiment a fixed amount of pyrene in acetone was transferred to an empty tube and acetone was allowed to evaporate in the dark at 45° C. for 30 min using an Eppendorf concentrator. trCLN3-L4 solutions in the concentration range between 0.0005-0.5 mg/ml were then added to yield a final pyrene concentration fixed at 100 μM for all reactions (Table 3). The solutions were incubated at 90° C. for 10 minutes in the dark and slowly cooled down to room temperature overnight at a rate of 1° C./10 min in order to internalize pyrene into the hydrophobic lipid core. The pyrene-loaded trCLN3-L4 nanoconstructs were transferred into a 384-multi well plate and the fluorescence emission spectrum of each well was recorded at room temperature by using an excitation wave length of 339 nm in an EnSpire® Multimode Plate Reader (PerkinElmer).
In close proximity, two pyrene molecules form an excimer that emits fluorescence at a longer wavelength compared to the monomer emission. The formed excimer is a dimeric complex where one molecule exists in an excited state and the other molecule in a ground state. Monomer emission of pyrene occurs within a range of 360-400 nm whereas the excimer emission is obtained within the wavelength limit of 465-500 nm. The critical micelle concentration was determined by the distinguishable pyrene excimer fluorescence of the corresponding DNA concentration. See G. Uddin G et al., Am. J. Biochem. Mol. Biol. 2013, 3, 175-181; which reference is incorporated herein in its entirety.

[2] = TEM size of trCLN3-L4 nanoconstructs; settings: negative stain electron microscopy
Procedure: The size and structure of the trCLN3-L4 nanoconstructs were analyzed by negative stain electron microscopy. Samples were prepared using negative staining. In brief, carbon coated grids (Quantifoil Micro Tools GmbH, Jena, Germany, 200 mesh) were glow discharged to render the surface hydrophilic prior to applying samples. 10 μL of an aqueous solution of trCLN3-L4 were applied to the grid. Afterwards excess solution was carefully blotted off using filter paper followed by 3 times washing with ddH2O. In the final step, grids were stained with negative staining reagent by placing them (plastic side down) on a 10 μL drop of freshly prepared 2% […] uranyl formiate aqueous staining solution. TEM micrographs were recorded using a JEOL JEM 2200 FS electron microscope (JEOL, Japan) operated at 200 kV. The size of the micelles measured on the TEM images could typically be observed in a range between 20 and 25 nm.

[3] = Critical micelle concentration via FRET (6-Fam/Atto647N-labeled motif 3); settings: room temperature
Procedure: The critical micelle concentration (CMC) value of the trCLN3-L4 aggregates was determined by intermolecular Förster resonance energy transfer (FRET) experiments using a FRET pair of 6-Fam and Atto647N both attached to the 5′-end of the trCLN3-L4 motif 3. The FRET labels were attached at the 5′-end in immediate proximity to the lipid-modifications to ensure that intermolecular FRET effects report the formation of micellar nanoconstructs at a concentration above the critical micelle concentration.
In the FRET experiment, a series of nanoconstructs was self-assembled by mixing 6-Fam- and Atto647N-labeled motif 3 in 1:1 ratios in a concentration range between 0.035-15 μM (Table 2). […] The mixtures were transferred into a 384-well plate and the FRET effect was monitored at room temperature by using an excitation wave length of λex=480 nm and an emission wavelength of λem=669 nm using an EnSpire® Multimode Plate Reader (PerkinElmer).
The intensity signals were collected for both FRET channels at λem=669 nm for the acceptor channel and that of donor channel at λem=520 nm. […] The CMC value was determined from the intersection of the lower horizontal asymptote of the sigmoidal curve with the tangent at the inflection point corresponding to the minimum trCLN3-L4 concentration required for formation of stable micelles in aqueous medium. […]

Substance: trCLN3-L4: trCLN3 aptamer with four C12-lipid-modified dU residues at the 5′-end; self-assembles into micellar nanoconstructs (TGGATGGTAGCTCGGTCGGGGTGGGTGGGTTGGCAAGTCT; four 5' C12-lipid-modified dU residues, chemistry not fully specified)
- I475/I373 ([1]; trCLN3-L4 0.0005 mg/mL (0.035 μM)): 0.20
- I475/I373 ([1]; trCLN3-L4 0.001 mg/mL (0.07 μM)): 0.23
- I475/I373 ([1]; trCLN3-L4 0.0025 mg/mL (0.175 μM)): 0.72
- I475/I373 ([1]; trCLN3-L4 0.005 mg/mL (0.35 μM)): 1.98
- I475/I373 ([1]; trCLN3-L4 0.01 mg/mL (0.7 μM)): 1.57
- I475/I373 ([1]; trCLN3-L4 0.025 mg/mL (1.75 μM)): 2.49
- I475/I373 ([1]; trCLN3-L4 0.05 mg/mL (3.5 μM)): 4.69
- I475/I373 ([1]; trCLN3-L4 0.1 mg/mL (7.0 μM)): 5.13
- I475/I373 ([1]; trCLN3-L4 0.25 mg/mL (17.4 μM)): 6.90
- I475/I373 ([1]; trCLN3-L4 0.5 mg/mL (35 μM)): 7.83
- size measured by TEM [2]: 25 nm
- critical micelle concentration (CMC) ([3]; FRET, aqueous medium): 300 nM and ~0.005 mg/ml
- CMC values ([3]; both methods (FRET and pyrene fluorescence)): 300 to 350 nM
